What all share (assay): ≥ marks a high value that may be exact or a test limit, other limits are often not marked, values filed in µg/mL are converted to µM
The test system of assay [1] is Pseudomonas aeruginosa 1570.
Assay [2] has as its system Pseudomonas aeruginosa ATCC 27853.
The subject of assay [3] is Pseudomonas aeruginosa 8600.
Assay [4] deals with Pseudomonas aeruginosa 5167.
Assay [5] deals with Streptococcus sanguinis.
For assay [6], the system named is Staphylococcus aureus.
In assay [7] the test system is Bacillus subtilis ATCC 6633.
Assay [8] has as its system Candida albicans JLC 30364.
Assay [9] has as its system Enterococcus faecalis ATCC 19433.
The subject of assay [10] is Streptococcus agalactiae.
Assay [11] deals with Staphylococcus aureus ATCC 29213.
Assay [12] deals with Mycobacterium tuberculosis H37Rv.
For assay [13], the system named is Escherichia coli ATCC 11775.
Assay [14] relates to Pseudomonas aeruginosa DFU3.
In assay [15] the test system is Salmonella enterica subsp. enterica serovar Typhi ATCC 6399.
Assay [16] concerns Pseudomonas aeruginosa ATCC 10145.
Assay [17] relates to Bacillus subtilis ATCC 6051.
For assay [18], the system named is Shigella flexneri.
In assay [19] the test system is Staphylococcus epidermidis SAM 0020.
Assay [20] has as its system Listeria monocytogenes ATCC 7644.
In assay [21] the test system is Staphylococcus aureus IAM 1098.
Assay [22] deals with Mycobacterium tuberculosis.
The subject of assay [23] is Candida albicans ATCC 18804.
For assay [24], the system named is Staphylococcus aureus ATCC 25923.
Assay [25] relates to Listeria monocytogenes EGD.
Assay [26] deals with Escherichia coli ATCC 25922.
Assay [27] concerns Pseudomonas aeruginosa 4891.
Assay [28] concerns Escherichia coli CCARM 1229.
The subject of assay [29] is Pseudomonas aeruginosa 4007.
The subject of assay [30] is Candida albicans KCTC 7270.
Assay [31] relates to Escherichia coli CCARM 1238.
For assay [32], the system named is Staphylococcus aureus CCARM 3518.
The test system of assay [33] is Staphylococcus aureus CCARM 3090.
Assay [34] concerns Trichosporon beigelii KCTC 7707.
The subject of assay [35] is Staphylococcus epidermidis ATCC 12228.
The subject of assay [36] is Salmonella enterica subsp. enterica serovar Typhimurium ATCC 14028.
Assay [37] deals with Escherichia coli D21.
Assay [38] deals with Serratia marcescens ATCC 8100.
Assay [39] deals with Bacillus megaterium Bm11.
The test system of assay [40] is Escherichia coli ML-35.

Each structure is given as a SMILES string. Values after ≈ are worked out from the molar mass of the structure shown. Values joined by “and” are separate entries in the source; they are usually repeats but may differ in a detail not shown here. Equal entries are not always repeated.

The source of these data is DBAASP.

The term MIC denotes the smallest concentration in the dilution series that meets the test's criterion for growth inhibition. High values mean weaker potency, low ones greater potency.

For `CC(C)C[C@H](NC(=O)[C@H](CC(C)C)NC(=O)[C@H](CCCCN)NC(=O)[C@H](CCCCN)NC(=O)[C@H](CC(C)C)NC(=O)[C@H](CC(C)C)NC(=O)[C@H](CCCCN)NC(=O)[C@H](C)NC(=O)[C@@H](N)Cc1ccccc1)C(N)=O` [FAKLLKKLL], the MIC in [1] is 21.1 µM (≈ 22.6 µg/mL); in assay [2], 7.45 µM and 14.9 µM; in assay [3], 5.27 µM (≈ 5.65 µg/mL); in assay [4] it was ≥ 59.6 µM.
In the case of `NC(=O)[C@H](Cc1ccccc1)NC(=O)[C@H](Cc1ccccc1)NC(=O)[C@@H](N)Cc1ccccc1` [FFF], the results for the MIC in [5] and in [6] were ≥ 1090 µM and > 1090 µM, respectively.
`CC(=O)N[C@@H](Cc1ccccc1)C(=O)N[C@@H](CCCCN)C(=O)N[C@@H](CCCCN)C(=O)N[C@@H](CC(C)C)C(=O)N[C@@H](CCCCN)C(=O)N[C@@H](CCCCN)C(=O)N[C@@H](CC(C)C)C(=O)N[C@@H](Cc1ccccc1)C(=O)N[C@@H](CO)C(=O)N[C@@H](CCCCN)C(=O)N[C@@H](CC(C)C)C(=O)N[C@@H](Cc1c[nH]c2ccccc12)C(=O)N[C@@H](CC(N)=O)C(=O)N[C@@H](Cc1c[nH]c2ccccc12)C(=O)N[C@@H](CCCCN)C(N)=O` [FKKLKKLFSKLWNWK]: the MIC in assay [7] is 1.6 µM and 4 µM; in assay [8], ≥ 32 µM.
`CC[C@H](C)[C@H](NC(=O)[C@H](CC(C)C)NC(=O)[C@H](CCCCN)NC(=O)[C@H](CC(C)C)NC(=O)[C@H](C)NC(=O)CNC(=O)[C@H](CCCCN)NC(=O)[C@H](C)NC(=O)[C@H](CC(C)C)NC(=O)[C@H](C)NC(=O)CNC(=O)[C@H](Cc1c[nH]c2ccccc12)NC(=O)[C@@H](N)Cc1ccccc1)C(=O)N1CCC[C@H]1C(=O)N[C@@H](CO)C(=O)N[C@@H](CC(C)C)C(=O)N[C@@H](Cc1ccccc1)C(=O)N[C@@H](CO)C(=O)N[C@@H](CO)C(=O)N[C@@H](Cc1ccccc1)C(=O)N[C@@H](CO)C(=O)N[C@@H](CCCCN)C(=O)N[C@@H](CCCCN)C(=O)N[C@@H](CC(=O)O)C(=O)O` [FWGALAKGALKLIPSLFSSFSKKD]: the MIC is 2.4 µM (≈ 6.27 µg/mL) in [9]; 18.8 µM (≈ 49.1 µg/mL) in assay [10]; ≥ 37.5 µM in [7]; 6.2 µM and > 3.1 µM in assay [11]; 22.1 µM (≈ 57.7 µg/mL) in assay [12]; 19.1 µM (≈ 49.9 µg/mL) in [13]. Also, the MIC in assay [14] is 18.8 µM and 25 µM; in assay [15], ≥ 37.5 µM; in [16] it was ≥ 38.2 µM; in assay [17], 4.8 µM (≈ 12.5 µg/mL); in assay [18], ≥ 37.5 µM; in assay [19], 4.8 µM (≈ 12.5 µg/mL). Also, the MIC in assay [20] is 18.8 µM (≈ 49.1 µg/mL); in assay [21], 2.4 µM (≈ 6.27 µg/mL); in assay [22] it was ≥ 33.1 µM; in assay [23], 19.1 µM (≈ 49.9 µg/mL).
As to `CC[C@H](C)[C@H](NC(=O)[C@H](C)NC(=O)[C@H](CCCN=C(N)N)NC(=O)[C@H](CCCCN)NC(=O)[C@H](C)NC(=O)[C@H](CCC(N)=O)NC(=O)[C@H](CC(C)C)NC(=O)[C@H](CCCCN)NC(=O)[C@H](Cc1ccccc1)NC(=O)[C@H](CC(C)C)NC(=O)[C@H](CCCCN)NC(=O)[C@H](Cc1ccccc1)NC(=O)[C@@H](NC(=O)[C@@H](NC(=O)[C@H](CCCCN)NC(=O)[C@H](C)NC(=O)[C@H](C)NC(=O)[C@@H](N)CCCCN)[C@@H](C)O)C(C)C)C(=O)N[C@@H](CCC(=O)O)C(=O)N[C@@H](C)C(N)=O` [KAAKTVFKLFKLQAKRAIEA], the MIC is 128 µM (≈ 289 µg/mL) in [2], 128 µM (≈ 289 µg/mL) in [24], ≥ 128 µM in [25] and 128 µM (≈ 289 µg/mL) in assay [26].
`CC[C@H](C)[C@H](NC(=O)[C@H](CCCCN)NC(=O)[C@H](CCCCN)NC(=O)[C@@H](NC(=O)[C@H](C)NC(=O)[C@H](CCC(=O)O)NC(=O)[C@H](Cc1cnc[nH]1)NC(=O)[C@@H](NC(=O)[C@H](CCCCN)NC(=O)[C@H](CCC(N)=O)NC(=O)[C@H](Cc1ccccc1)NC(=O)[C@@H](NC(=O)[C@H](CCCCN)NC(=O)[C@H](CCCCN)NC(=O)[C@H](CC(C)C)NC(=O)[C@H](C)NC(=O)[C@H](CC(N)=O)NC(=O)[C@@H](N)CC(C)C)C(C)C)[C@@H](C)CC)[C@@H](C)CC)C(N)=O` [LNALKKVFQKIHEAIKKI]: the MIC in [27] was 4 µM (≈ 8.48 µg/mL); in [28], 2 µM (≈ 4.24 µg/mL); in assay [29] it was 4 µM (≈ 8.48 µg/mL); in assay [30], 16 µM (≈ 33.9 µg/mL); in assay [31], 2 µM (≈ 4.24 µg/mL); in [32], 4 µM (≈ 8.48 µg/mL). Besides, the MIC in assay [33] came out at 4 µM (≈ 8.48 µg/mL); in [34], 16 µM (≈ 33.9 µg/mL).
For `NC(N)=NCCC[C@H](NC(=O)[C@@H](N)CCCN=C(N)N)C(=O)N[C@@H](CCCN=C(N)N)C(=O)N1CCC[C@H]1C(=O)N[C@@H](CCCN=C(N)N)C(=O)N1CCC[C@H]1C(=O)N1CCC[C@H]1C(=O)N[C@@H](Cc1ccc(O)cc1)C(=O)N[C@@H](Cc1c[nH]c2ccccc12)C(=O)N1CCC[C@H]1C(=O)N[C@@H](CCCN=C(N)N)C(=O)N1CCC[C@H]1C(=O)N[C@@H](CCCN=C(N)N)C(=O)N1CCC[C@H]1C(=O)N1CCC[C@H]1C(=O)O` [RRRPRPPYWPRPRPP], the MIC in assay [35] was > 64 µM; in assay [36], 16 µM (≈ 31.7 µg/mL); in [37] it was 2 µM (≈ 3.97 µg/mL); in [38], 8 µM (≈ 15.9 µg/mL); in assay [39], 16 µM (≈ 31.7 µg/mL); in [40] it was 4 µM (≈ 7.94 µg/mL).
